One experiment has as its system SuDHL6. The experiment is described as follows: Proliferation/viability assay. The format is cell-based. Conditions: Table 10, B Lymphoma, read-out: Effect on Tumor Cell Growth EC50, SuDHL6.
Experiment [1] deals with PC3. Nature of the experiment: Proliferation/viability assay. The format is cell-based. The conditions noted are these: Table 10, Prostate Ca, read-out: Effect on Tumor Cell Growth EC50, PC3.
For experiment [2], the system named is DoHH2. Nature of the experiment: CellTiter-Glo proliferation/viability assay. The format is cell-based, human. A general note: In ATP-based viability assays light output follows the ATP content of the culture.
Experiment [3] relates to Ramos. Conditions: cited from earlier work.
Experiment [4] concerns Ramos. Nature of the experiment: CellTiter-Glo proliferation/viability assay. The format is cell-based, human.
A further experiment deals with BTK (Homo sapiens (Human), UniProt Q06187).
The test system of a further experiment is RBL-2H3 cells. The experiment is described as follows: Degranulation (β-hexosaminidase release) colorimetric assay. The format is cell-based. Conditions: Rattus norvegicus, RBL-2H3, IgE / DNP-BSA. The text has this: Crosslinking of IgE receptors leads to induction of intracellular signal transduction pathways and degranulation of mast cells and basophils leading to the release of histamine, serotonin and cytokines that constitutes an allergic reaction. […] One of the factors secreted on induction of degranulation is β-hexosaminidase. A colorimetric assay using 4-nitrophenyl N-acetyl-3-D-glucosaminide (Sigma-Aldrich) as a substrate was used to estimate the amount of enzyme secreted upon degranulation. In brief, RBL-2H3 (ATCC # CRL 2256) cells were plated overnight in the presence of IgE (monoclonal anti-dinitrophenyl antibody from Sigma-Aldrich). The next day, cells were treated with compounds in cell culture media, washed and treated with DNP-BSA for 1 hour (Sigma-Aldrich) in Tyrodes's buffer to induce degranulation. The level of 3-hexosaminidase was analyzed in cell-free supernates and cell lysates and the amount of β-hexosaminidase released was calculated. EC50 values were generated using varying concentrations of inhibitors. […] Thus amino naphthyridinones can be used to inhibit immunologic functions such as degranulation.

Experiment [5] concerns PLCγ2 phosphorylation in Ramos cells. Nature of the experiment: PLCγ2 phosphorylation by flow cytometry. The format is cell-based, human. The conditions noted are these: Homo sapiens, 0.3 uM, flow cytometry, anti-phospho PLCγ2 (Tyr759), read-out: pPLCγ % inhibition. In a few lines: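 Ramos cells starved 18 h in 1% FBS, pretreated with inhibitor 2 h, then stimulated with anti-IgM (10 ug/ml final) plus 3.3 mM H2O2 for 2 min, then cross-linking F(ab) (10 ug/ml) plus H2O2 for 8 min. Fixed, permeabilized cells stained with PE anti-phospho-PLCγ2 (Tyr1217 or Tyr759), dead cells gated out; ED50 from geometric mean fluorescence over four inhibitor concentrations.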
(In flow cytometry, cells or beads pass a laser one at a time.)

The subject of experiment [6] is phosphorylation of SFKs in Ramos cells. The experiment is described as follows: SFK phosphorylation (Tyr 416) by flow cytometry. The format is cell-based, human. The conditions noted are these: Homo sapiens, 0.3 uM, flow cytometry, SFK phosphorylated at Tyr 416, read-out: pSRC % inhibition. In a few lines: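 Ramos cells pretreated with compound 2 hrs in RPMI with 5% FBS, then stimulated 10 minutes with H2O2/anti-IgM. Phospho-Tyr 416 SFK detected by flow cytometry with an antibody that may cross-react across Src family members, plus fluorescent secondary antibody.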

For a further experiment, the target named is Lyn (Homo sapiens (Human), UniProt P07948). Conditions: read-out: Lyn IC50.
The next experiment concerns the target Src (Homo sapiens (Human), UniProt P12931). The conditions noted are these: read-out: Src IC50.
Experiment [7] concerns DoHH2. Conditions: cited from earlier work.
For experiment [8], the system named is PC3. The experiment is described as follows: Apoptosis by flow cytometry (Annexin V / 7AAD). The conditions noted are these: Table 5; positive control, concentration not given. The format is cell-based.
Experiment [9] relates to DoHH2. The experiment is described as follows: Apoptosis by flow cytometry (Annexin V / 7AAD). It counts as cell-based, human. Conditions: Table 5; positive control, concentration not given. The text has this:
Activation of Tec family kinases including BTK, and/or Src kinase family members, regulates cell survival and cell death in normal B cells, lymphomas, and solid tumors. Apoptosis is a programmed cell death characterized by specific changes in cell morphology. […] Staurosporine was used as a positive control for apoptosis. […] Table 6 illustrates that several amino naphthyridinones induce significant apoptosis in DoHH2 cells.

The test system of experiment [10] is Ramos. Nature of the experiment: Apoptosis by flow cytometry (Annexin V / 7AAD). The format is cell-based, human. Conditions: Table 5; positive control, concentration not given.
[11] abbreviates: Homo sapiens, DOHH-2, 48 hrs, read-out: DoHH2 EC50.
[12] abbreviates: Homo sapiens, Ramos, 48 hrs, read-out: Ramos EC50.
The mark [13] stands for this setting: Homo sapiens, Ramos, 48 h, read-out: Ramos EC50.

Like-named read-outs stand apart in the source and are kept apart here.

Chain of Src (P12931 whole entry, looked up): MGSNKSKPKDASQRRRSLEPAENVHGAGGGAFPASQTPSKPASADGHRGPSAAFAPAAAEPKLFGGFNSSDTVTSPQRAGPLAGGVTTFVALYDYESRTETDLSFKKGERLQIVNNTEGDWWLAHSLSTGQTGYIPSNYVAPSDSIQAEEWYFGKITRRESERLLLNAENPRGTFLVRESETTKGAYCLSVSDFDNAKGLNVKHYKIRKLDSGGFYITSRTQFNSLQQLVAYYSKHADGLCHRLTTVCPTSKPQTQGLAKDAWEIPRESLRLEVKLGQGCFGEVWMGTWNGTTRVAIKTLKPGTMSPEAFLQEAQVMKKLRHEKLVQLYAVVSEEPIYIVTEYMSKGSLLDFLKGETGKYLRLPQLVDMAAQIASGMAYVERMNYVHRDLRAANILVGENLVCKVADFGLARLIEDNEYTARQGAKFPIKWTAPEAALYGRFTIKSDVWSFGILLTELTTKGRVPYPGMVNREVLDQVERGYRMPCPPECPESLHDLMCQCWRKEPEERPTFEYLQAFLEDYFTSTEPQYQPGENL
Chain of Lyn (P07948 whole entry): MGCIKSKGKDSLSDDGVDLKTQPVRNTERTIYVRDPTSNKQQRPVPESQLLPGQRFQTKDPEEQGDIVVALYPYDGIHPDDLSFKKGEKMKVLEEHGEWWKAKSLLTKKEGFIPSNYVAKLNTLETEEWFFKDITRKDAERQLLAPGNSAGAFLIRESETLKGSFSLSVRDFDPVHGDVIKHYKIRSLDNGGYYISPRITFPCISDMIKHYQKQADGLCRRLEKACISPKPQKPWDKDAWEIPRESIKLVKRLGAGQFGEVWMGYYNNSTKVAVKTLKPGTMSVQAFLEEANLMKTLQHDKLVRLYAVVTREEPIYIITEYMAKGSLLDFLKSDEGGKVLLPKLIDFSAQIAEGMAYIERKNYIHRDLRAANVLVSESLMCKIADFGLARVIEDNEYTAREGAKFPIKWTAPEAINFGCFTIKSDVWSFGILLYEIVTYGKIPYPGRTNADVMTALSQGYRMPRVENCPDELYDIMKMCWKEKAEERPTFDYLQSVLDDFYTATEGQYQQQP
Chain of BTK (Q06187 whole entry): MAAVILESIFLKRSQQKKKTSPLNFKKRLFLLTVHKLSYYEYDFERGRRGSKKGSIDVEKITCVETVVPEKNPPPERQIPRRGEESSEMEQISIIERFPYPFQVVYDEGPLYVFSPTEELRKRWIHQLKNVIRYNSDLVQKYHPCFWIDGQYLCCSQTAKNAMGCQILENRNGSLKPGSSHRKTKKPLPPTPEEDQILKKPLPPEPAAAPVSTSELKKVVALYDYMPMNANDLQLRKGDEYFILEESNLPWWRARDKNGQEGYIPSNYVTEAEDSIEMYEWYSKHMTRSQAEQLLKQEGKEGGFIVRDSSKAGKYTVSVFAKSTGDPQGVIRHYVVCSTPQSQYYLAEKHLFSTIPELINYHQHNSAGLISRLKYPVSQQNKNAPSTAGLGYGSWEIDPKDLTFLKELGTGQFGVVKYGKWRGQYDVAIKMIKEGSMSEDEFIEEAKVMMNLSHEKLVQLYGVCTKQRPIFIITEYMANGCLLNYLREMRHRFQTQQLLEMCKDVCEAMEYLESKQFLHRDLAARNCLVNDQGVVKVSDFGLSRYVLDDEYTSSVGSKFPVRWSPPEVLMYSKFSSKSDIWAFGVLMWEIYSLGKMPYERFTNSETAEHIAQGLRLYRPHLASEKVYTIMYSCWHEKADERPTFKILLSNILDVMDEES

The term EC50 denotes the concentration needed to bring the measured effect to its halfway point. For the molecule `CN1CCN(CCOc2cc(OC3CCOCC3)c3c(Nc4c(Cl)ccc5c4OCO5)ncnc3c2)CC1` [AZN0530], the EC50 is 2500 nM with SuDHL6; more than 10000 nM in the experiment with PC3 [1]; 2400 nM in the experiment with DoHH2 [2] (Table 10, B Lymphoma, read-out: Effect on Tumor Cell Growth EC50, DOHH2); more than 10000 nM in the experiment with Ramos [4] (Table 10, B Lymphoma, read-out: Effect on Tumor Cell Growth EC50, Ramos). Also, the “Resistance of Ramos to known kinase inhibitors” value in the experiment with Ramos [3] is given as “resistant”.

Usually IC50 stands for the midpoint of a concentration-inhibition curve. As a reminder, the inhibition is the change of the read-out against control, counted positive when it falls. `CC(C)n1c(=O)c(-c2c(F)cccc2F)cc2cnc(Nc3ccc(F)cn3)cc21` [Compound 78, 3-(2,6-difluorophenyl)-7-((5-fluoropyridin-2-yl)amino)-1-isopropyl-1,6-naphthyridin-2(1H)-one] came in with a half-inhibitory concentration (IC50) at BTK of 100 to 1000 nM. In addition, the values for the EC50 in the experiment on DoHH2 [2] (setting [11]), with RBL-2H3 cells and in the experiment on Ramos [4] (setting [12]) were less than 1000 nM, more than 5000 nM and more than 10000 nM, respectively. In addition, the inhibition at 0.3 µM worked out at 55% in [5] and 8% in experiment [6].

In the case of `CCn1c(=O)c(-c2c(F)cccc2F)cc2cnc(Nc3ccc(N(C)C4CCN(C)CC4)cn3)cc21` [Compound 95, 3-(2,6-difluorophenyl)-1-ethyl-7-((5-(methyl(1-methylpiperidin-4-yl)amino)pyridin-2-yl)amino)-1,6-naphthyridin-2(1H)-one], the IC50 at BTK (read-out: BTK IC50), at Lyn and on Src was less than 100 nM each time. Also, the half-maximal effective concentration (EC50) in the experiment with DoHH2 [2] (setting [11]) was less than 1000 nM; in the experiment with RBL-2H3 cells, 2220 nM; in the experiment with Ramos [4] (setting [13]), 1000 to 10000 nM. The inhibition at 0.3 µM in experiment [5] is 87%; in experiment [6], 56%.

For `CCN(CC)CCOc1ccc(Nc2cc3c(cn2)cc(-c2ccc(F)cc2C)c(=O)n3CC)nc1` [Compound 99, 7-((5-(2-(diethylamino)ethoxy)pyridin-2-yl)amino)-1-ethyl-3-(4-fluoro-2-methylphenyl)-1,6-naphthyridin-2(1H)-one], the IC50 on BTK (read-out: BTK IC50), on Lyn and on Src was less than 100 nM throughout. For the same molecule, the EC50 was less than 1000 nM in the experiment with DoHH2 [2] (setting [11]), 2990 nM in the experiment with RBL-2H3 cells and 1000 to 10000 nM with Ramos [4] (setting [12]). In addition, the inhibition at 0.3 µM in [5] was determined as 83%; in [6], 40%.

Take `CCN(CC)CCOc1ccc(Nc2cc3c(cn2)cc(-c2c(Cl)cccc2Cl)c(=O)n3CC)nc1` [Compound 101, 3-(2,6-dichlorophenyl)-7-((5-(2-(diethylamino)ethoxy)pyridin-2-yl)amino)-1-ethyl-1,6-naphthyridin-2(1H)-one]: the IC50 at BTK (read-out: BTK IC50), on Lyn and on Src was less than 100 nM each time. Also, the EC50 was less than 1000 nM with DoHH2 [2] (setting [11]), 950 nM in the experiment on RBL-2H3 cells and 1000 to 10000 nM in the experiment on Ramos [4] (setting [12]). The inhibition at 0.3 µM in [5] worked out at 92%; in [6], 70%.

Consider `CCn1c(=O)c(-c2c(O)cccc2F)cc2cnc(Nc3ccc(N(C)C4CCN(C)CC4)cn3)cc21` [Compound 120, 1-ethyl-3-(2-fluoro-6-hydroxyphenyl)-7-((5-(methyl(1-methylpiperidin-4-yl)amino)pyridin-2-yl)amino)-1,6-naphthyridin-2(1H)-one], for which the IC50 on BTK (read-out: BTK IC50), at Lyn and at Src was less than 100 nM throughout. The EC50 in the experiment with DoHH2 [2] (setting [11]) is less than 1000 nM; in the experiment with RBL-2H3 cells, 2220 nM; in the experiment on Ramos [4] (setting [12]) it was 1000 to 10000 nM. The values for the inhibition at 0.3 µM in experiment [5] and in experiment [6] were 87% and 57%, respectively.

Turning to `COCCn1c(=O)c(-c2c(F)cccc2F)cc2cnc(Nc3ccc(N(C)C4CCN(C)CC4)cn3)cc21` [Compound 129, 3-(2,6-difluorophenyl)-1-(2-methoxyethyl)-7-((5-(methyl(1-methylpiperidin-4-yl)amino)pyridin-2-yl)amino)-1,6-naphthyridin-2(1H)-one], the IC50 on BTK (read-out: BTK IC50), at Lyn and on Src was less than 100 nM throughout. In addition, the EC50 was less than 1000 nM in the experiment with DoHH2 [2] (setting [11]), more than 5000 nM in the experiment with RBL-2H3 cells and 1000 to 10000 nM in the experiment on Ramos [4] (setting [12]). Moreover, the inhibition at 0.3 µM was found to be 88% in [5] and 66% in experiment [6].

Regarding `CN1CCN(CCn2c(=O)c(-c3c(F)cccc3F)cc3cnc(Nc4ccc(F)cn4)cc32)CC1` [Compound 134, 3-(2,6-difluorophenyl)-7-((5-fluoropyridin-2-yl)amino)-1-(2-(4-methylpiperazin-1-yl)ethyl)-1,6-naphthyridin-2(1H)-one], the half-inhibitory concentration (IC50) on BTK (read-out: BTK IC50), at Lyn and on Src was less than 100 nM each time. The concentration giving a half-maximal response (EC50) in the experiment with DoHH2 [2] (setting [11]) was less than 1000 nM; in the experiment with RBL-2H3 cells, 3110 nM; in the experiment on Ramos [4] (setting [12]), 1000 to 10000 nM. The inhibition at 0.3 µM turned out to be 80% in experiment [5] and 44% in experiment [6].

Turning to `CC(C)n1c(=O)c(-c2c(F)cccc2F)cc2cnc(Nc3ccc(N(C)C4CCN(C)CC4)cn3)cc21` [Compound 137, 3-(2,6-difluorophenyl)-1-isopropyl-7-((5-(methyl(1-methylpiperidin-4-yl)amino)pyridin-2-yl)amino)-1,6-naphthyridin-2(1H)-one], the IC50 at BTK (read-out: BTK IC50), at Lyn and on Src was less than 100 nM in each case. Moreover, the EC50 was less than 1000 nM with DoHH2 [2] (setting [11]), 1140 nM in the experiment with RBL-2H3 cells and 1000 to 10000 nM in the experiment with Ramos [4] (setting [13]). Also, the inhibition at 0.3 µM in experiment [5] was determined as 98%; in [6], 81%.

As to `Cc1ccc(NC(=O)c2ccc(CN3CC[C@H](N(C)C)C3)c(C(F)(F)F)c2)cc1Nc1nccc(-c2cncnc2)n1` [Inno-406], the EC50 was 5700 nM with SuDHL6 (Homo sapiens, SU-DHL-6); more than 10000 nM in the experiment with PC3 [1] (Homo sapiens, PC-3); 6900 nM with DoHH2 [2] (Homo sapiens, DOHH-2, Table 10, B Lymphoma, read-out: Effect on Tumor Cell Growth EC50, DOHH2); 7300 nM with Ramos [4] (Homo sapiens, Ramos, Table 10, B Lymphoma, read-out: Effect on Tumor Cell Growth EC50, Ramos). In addition, the “Resistance of Ramos to known kinase inhibitors” value in the experiment on Ramos [3] is listed as “resistant”.

Take `Cc1nc(Nc2ncc(C(=O)Nc3c(C)cccc3Cl)s2)cc(N2CCN(CCO)CC2)n1` [dasatinib]: the “Resistance of Ramos to known kinase inhibitors” value in the experiment with Ramos [3] is given as “resistant”. For the same molecule, in the experiment on DoHH2 [7], the “Response of DoHH2 to known drugs” value is “responds”.

For the molecule `CN[C@@H]1C[C@H]2O[C@@](C)([C@@H]1OC)n1c3ccccc3c3c4c(c5c6ccccc6n2c5c31)C(=O)NC4` [staurosporine, Staurosporine, reference compound], the “Percent Apoptosis PC3” value with PC3 [8] is 47.16%. The “Percent Apoptosis DOHH2” value in the experiment with DoHH2 [9] is listed as 95.86%. In addition, the “Percent Apoptosis Ramos” value in the experiment on Ramos [10] amounted to 73.74%.
